Test results reported in ChEMBL document CHEMBL1158741, “Majusculoic acid, a brominated cyclopropyl fatty acid from a marine cyanobacterial mat assemblage” (2005).
In brackets after ≈: the same amount, converted by molar mass. Activity calls are given as the source filed them. The rule behind the calls is not given here.

How the values were obtained:
[1] = test system: Candida albicans; experiment: Antifungal activity against Candida albicans ATCC 14503; type: functional
[2] = test system: Candida albicans; experiment: Antifungal activity against fluconazole-resistant Candida albicans UCD FR1; type: functional, organism-based
[3] = test system: Nakaseomyces glabratus; experiment: Antifungal activity against Candida glabrata; type: functional

Compound | MIC [1] [µM] | Activity [2] | MIC [3] [µM]
CCC/C(Br)=C/C=C/CC[C@H]1C[C@@H]1CCC(=O)O [MAJUSCULOIC ACID] | 8 (≈ 2.52 µg/mL) | inactive | 19.3 (≈ 6.08 µg/mL)
OC(Cn1cncn1)(Cn1cncn1)c1ccc(F)cc1F [FLUCONAZOLE] | 1 (≈ 0.306 µg/mL) | – | –
